Assay results from patent publication US8828696B2, “Use of Penicillin G Procaine as a selective antimicrobial agent in the production of alcohol by fermentation” (Lallemand Specialites, Inc, priority 2008, dated 2014).
Where two headings read alike, the source gives them in different places.

System: Saccharomyces cerevisiae yeast
Assay type: cell-based
Procedure: A study was conducted to determine the degree of impact of the fermentation antimicrobial Penicillin G Procaine and Penicillin G potassium during alcohol production by fermentation. The antimicrobial impact was inferred by conducting a series of fermentations and measuring if the above said antibiotics interfered with the cell growth and the fermentation function of Saccharomyces cerevisiae yeast used in the fermentation phase. This study provided analysis of what impact, if any, the Penicillin G Procaine or Penicillin G Potassium has on the yeast during lab scale fermentations, specifically BioFerm® XR yeast from North American Bioproducts Corporation (NABC). This study observed the ability of yeast to replicate and ferment a corn mash substrate with and without the presence of Penicillin G Procaine or Penicillin G Potassium.
This study was set up in a series of fermentation vessels. All antibiotic concentrations were tested in triplicate. Cell counts were done on one flask for each treatment at 12, 24, 36 and 48 hours and testing of the fermentation reactions by HPLC was also performed at 12, 24, 36 and 48 hours. The experiment was set as follows:
1. Antibiotic solutions were prepared to provide a sterile 1 and 10 μg/ml solutions.
2. Antibiotic solutions tested were as follows:
3. Fermentations were set up using 31% solids corn mash using saccharifying enzymes and the following procedure:
A. Yeast Conditioning: • 1. Add 2 g yeast to 10 ml sterile water for each 3 flasks to test, (14 g yeast to 70 ml water) into a sterile 250 ml flask and place in water bath set to 100° F. • 2. Incubate at 100° F. for 30 minutes with occasional mixing. • 3. Remove flasks from water bath and divide suspension between the all flasks for the trial.
B. Fermentation Procedure • 1. To prepared mash, add the following. • a. Add 0.58 g urea/liter mash and mix. • b. Add 0.2 ml GA per liter and mix. • 2. Remove sample for background HPLC testing. • 3. Add antibiotic solution to labeled sterile 250 ml flasks. • 4. Add hydrated yeast suspension to mash and mix well. • 5. Add sterile stir bar to each flask and add about 150 ml mash into each 250 ml flask for a total of 21 flasks. • 6. Cover each flask with a gas trap in a sterilized stopper. • 7. Place in a 33° C. water bath with continuous mixing at 280 rpm at 75% power. • 8. Remove sample at 12 hr interval to perform cell count, viability and budding. • 9. Incubate sample up to 48 hours, enough time for complete fermentation • 10. Collect samples at the following times for cell counts and HPLC testing: 12 hours; 24 hours; 36 hours and 48 hours

[1] = 5 ppm, 12 hr fermentation sample
[2] = 5 ppm, 24 hr fermentation sample
[3] = 5 ppm, 36 hr fermentation sample
[4] = 5 ppm, 48 hr fermentation sample
[5] = 5 ppm, average of 12, 24, 36 and 48 hour samples
[6] = 15 ppm, 12 hr fermentation sample
[7] = 15 ppm, 24 hr fermentation sample
[8] = 15 ppm, 36 hr fermentation sample
[9] = 15 ppm, 48 hr fermentation sample
[10] = 15 ppm, average of 12, 24, 36 and 48 hour samples
[11] = 30 ppm, 12 hr fermentation sample
[12] = 30 ppm, 24 hr fermentation sample
[13] = 30 ppm, 36 hr fermentation sample
[14] = 30 ppm, 48 hr fermentation sample
[15] = 30 ppm, average of 12, 24, 36 and 48 hour samples
[16] = average for all three trials (5, 15, 30 ppm), 12-48 hour samples

CC1(C)S[C@@H]2[C@H](NC(=O)Cc3ccccc3)C(=O)N2[C@H]1C(=O)[O-].[K+] [Penicillin G Potassium]
viable yeast cell count (5 ppm, 12 hours, total cell count x % viability): 510
% B (% budding) [1]: 13.8%
% V (% viability) [1]: 88%
CC (cell count) [1]: 580
viable yeast cell count (5 ppm, 24 hours, total cell count x % viability): 500
% B (% budding) [2]: 8.4%
% V (% viability) [2]: 90%
CC (cell count) [2]: 556
viable yeast cell count (5 ppm, 36 hours, total cell count x % viability): 421
% B (% budding) [3]: 8.1%
% V (% viability) [3]: 81%
CC (cell count) [3]: 520
viable yeast cell count (5 ppm, 48 hours, total cell count x % viability): 381
% B (% budding) [4]: 8.9%
% V (% viability) [4]: 75%
CC (cell count) [4]: 508
viable yeast cell count (5 ppm, Average 12-48 hours): 453
A % B (average % budding) [5]: 9.8%
A % V (average % viability) [5]: 83.5%
ACC (average cell count) [5]: 541
viable yeast cell count (15 ppm, 12 hours, total cell count x % viability): 469
% B (% budding) [6]: 13.3%
% V (% viability) [6]: 85%
CC (cell count) [6]: 552
viable yeast cell count (15 ppm, 24 hours, total cell count x % viability): 465
% B (% budding) [7]: 7.5%
% V (% viability) [7]: 86%
CC (cell count) [7]: 541
viable yeast cell count (15 ppm, 36 hours, total cell count x % viability): 435
% B (% budding) [8]: 6.2%
% V (% viability) [8]: 82%
CC (cell count) [8]: 530
viable yeast cell count (15 ppm, 48 hours, total cell count x % viability): 372
% B (% budding) [9]: 7.3%
% V (% viability) [9]: 72%
CC (cell count) [9]: 516
viable yeast cell count (15 ppm, Average 12-48 hours): 435
A % B (average % budding) [10]: 8.6%
A % V (average % viability) [10]: 81.3%
ACC (average cell count) [10]: 535
viable yeast cell count (30 ppm, 12 hours, total cell count x % viability): 535
% B (% budding) [11]: 12.3%
% V (% viability) [11]: 86%
CC (cell count) [11]: 622
viable yeast cell count (30 ppm, 24 hours, total cell count x % viability): 462
% B (% budding) [12]: 8.7%
% V (% viability) [12]: 88%
CC (cell count) [12]: 525
viable yeast cell count (30 ppm, 36 hours, total cell count x % viability): 401
% B (% budding) [13]: 8.7%
% V (% viability) [13]: 80%
CC (cell count) [13]: 501
viable yeast cell count (30 ppm, 48 hours, total cell count x % viability): 393
% B (% budding) [14]: 6.4%
% V (% viability) [14]: 77%
CC (cell count) [14]: 511
viable yeast cell count (30 ppm, Average 12-48 hours): 448
A % B (average % budding) [15]: 9.0%
A % V (average % viability) [15]: 82.8%
ACC (average cell count) [15]: 540
A % B (average % budding) [16]: 9.1%
A % V (average % viability) [16]: 82.5%
ACC (average cell count) [16]: 539
viable yeast cell count (average for all three trials (5, 15, 30 ppm), 12 hours): 505
viable yeast cell count (average for all three trials (5, 15, 30 ppm), 24 hours): 476
viable yeast cell count (average for all three trials (5, 15, 30 ppm), 36 hours): 419
viable yeast cell count (average for all three trials (5, 15, 30 ppm), 48 hours): 382
viable yeast cell count (average for all three trials (5, 15, 30 ppm), Average 12-48 hours): 445
